Test results: ChEMBL document CHEMBL1201862, “PubChem BioAssay data set” (2004)
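A five-concentration, 48-hour dose response in 96-well plates underlies each endpoint, interpolated linearly between surrounding concentrations. Here, GI50 denotes the concentration required for 50% inhibition of growth.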 Active and inactive are the calls of the source. Cut-off read from the data, not from the text of the source: active = GI50 up to about 1.1 µM and inactive = higher.

Tests used:
Experiment in all cases: NCI tumour cell line growth inhibition, 48 h
[1] = test system: 786-0
[2] = test system: A498
[3] = test system: A549
[4] = test system: ACHN
[5] = test system: CAKI-1
[6] = test system: CCRF-CEM
[7] = test system: COLO 205
[8] = test system: DU-145
[9] = test system: EKVX
[10] = test system: HCC 2998
[11] = test system: HCT-116
[12] = test system: HCT-15
[13] = test system: HL-60
[14] = test system: HOP-92
[15] = test system: HT-29
[16] = test system: Hs-578T
[17] = test system: IGROV-1
[18] = test system: K562
[19] = test system: KM12
[20] = test system: LOX IMVI
[21] = test system: M14
[22] = test system: MCF7
[23] = test system: MDA-MB-231
[24] = test system: MDA-MB-435
[25] = test system: MDA-N
[26] = test system: MOLT-4
[27] = test system: Malme-3M
[28] = test system: NCI-H226
[29] = test system: NCI-H23
[30] = test system: NCI-H460
[31] = test system: NCI-H522
[32] = test system: NCI/ADR-RES
[33] = test system: OVCAR-3
[34] = test system: OVCAR-4
[35] = test system: OVCAR-5
[36] = test system: OVCAR-8
[37] = test system: PC-3
[38] = test system: RPMI-8226
[39] = test system: RXF 393
[40] = test system: SF-268
[41] = test system: SF-295
[42] = test system: SF-539
[43] = test system: SK-MEL-28
[44] = test system: SK-MEL-2
[45] = test system: SK-MEL-5
[46] = test system: SK-OV-3
[47] = test system: SN12C
[48] = test system: SNB-19
[49] = test system: SNB-75
[50] = test system: SR
[51] = test system: SW-620
[52] = test system: T47D
[53] = test system: TK-10
[54] = test system: U-251
[55] = test system: UACC-257
[56] = test system: UACC-62
[57] = test system: UO-31
[58] = test system: HOP-62

Q: How did the GI50 [1] turn out when CCN1CCC(O)(/C=C/c2cccc(C)c2)C(C(=O)/C=C/c2cccc(C)c2)C1 (configuration not stated) was run?
A: The GI50 was 2.26 µM (inactive).

Q: What about the GI50 [2] of the same compound?
A: Its GI50 is 2.03 µM (inactive).

Q: And the GI50 [3]?
A: The GI50 was 2.29 µM (inactive).

Q: What about the GI50 [4] of the same compound?
A: The GI50 was 1.59 µM (inactive).

Q: And the GI50 [5]?
A: The GI50 was 2 µM (inactive).

Q: And the GI50 [6]?
A: The GI50 was 1.57 µM (inactive).

Q: What about the GI50 [7] of the same compound?
A: The GI50 was 1.95 µM (inactive).

Q: What about the GI50 [8] of the same compound?
A: The GI50 was 3.94 µM (inactive).

Q: What about the GI50 [9] of the same compound?
A: The GI50 was 2.04 µM (inactive).

Q: What about the GI50 [10] of the same compound?
A: The GI50 was 1.6 µM (inactive).

Q: And the GI50 [11]?
A: The GI50 was 2.18 µM (inactive).

Q: And the GI50 [12]?
A: The GI50 was 2.25 µM.

Q: What about the GI50 [13] of the same compound?
A: The GI50 was 61.4 µM (inactive).

Q: What about the GI50 [14] of the same compound?
A: Its GI50 is 2.17 µM (inactive).

Q: What about the GI50 [15] of the same compound?
A: Its GI50 is 1.52 µM (inactive).

Q: And the GI50 [16]?
A: The GI50 was 2.33 µM (inactive).

Q: What about the GI50 [17] of the same compound?
A: Its GI50 is 1.94 µM (inactive).

Q: And the GI50 [18]?
A: The GI50 was 2.98 µM (inactive).

Q: What about the GI50 [19] of the same compound?
A: Its GI50 is 1.56 µM (inactive).

Q: And the GI50 [20]?
A: Its GI50 is 2.17 µM (inactive).

Q: What about the GI50 [21] of the same compound?
A: The GI50 was 2.58 µM (inactive).

Q: What about the GI50 [22] of the same compound?
A: The GI50 was 1.9 µM (inactive).

Q: And the GI50 [23]?
A: Its GI50 is 3.35 µM (inactive).

Q: And the GI50 [24]?
A: The GI50 was 2.02 µM (inactive).

Q: What about the GI50 [25] of the same compound?
A: The GI50 was 2.66 µM (inactive).

Q: And the GI50 [26]?
A: Its GI50 is 2.43 µM (inactive).

Q: And the GI50 [27]?
A: The GI50 was 1.57 µM (inactive).

Q: And the GI50 [28]?
A: Its GI50 is 2.42 µM (inactive).

Q: What about the GI50 [29] of the same compound?
A: The GI50 was 2.21 µM (inactive).

Q: What about the GI50 [30] of the same compound?
A: Its GI50 is 2.12 µM (inactive).

Q: And the GI50 [31]?
A: Its GI50 is 2.21 µM (inactive).

Q: And the GI50 [32]?
A: The GI50 was 2.19 µM (inactive).

Q: And the GI50 [33]?
A: The GI50 was 3.48 µM (inactive).

Q: What about the GI50 [34] of the same compound?
A: Its GI50 is 4.31 µM (inactive).

Q: And the GI50 [35]?
A: The GI50 was 2.64 µM (inactive).

Q: What about the GI50 [36] of the same compound?
A: Its GI50 is 2.87 µM (inactive).

Q: What about the GI50 [37] of the same compound?
A: The GI50 was 13.3 µM (inactive).

Q: What about the GI50 [38] of the same compound?
A: Its GI50 is 1.77 µM (inactive).

Q: And the GI50 [39]?
A: Its GI50 is 1.67 µM (inactive).

Q: What about the GI50 [40] of the same compound?
A: Its GI50 is 1.74 µM (inactive).

Q: What about the GI50 [41] of the same compound?
A: Its GI50 is 2.28 µM (inactive).

Q: And the GI50 [42]?
A: The GI50 was 2.17 µM (inactive).

Q: And the GI50 [43]?
A: Its GI50 is 2.19 µM (inactive).

Q: What about the GI50 [44] of the same compound?
A: Its GI50 is 2.31 µM (inactive).

Q: What about the GI50 [45] of the same compound?
A: The GI50 was 1.88 µM (inactive).

Q: And the GI50 [46]?
A: The GI50 was 3.35 µM (inactive).

Q: What about the GI50 [47] of the same compound?
A: Its GI50 is 2.47 µM (inactive).

Q: And the GI50 [48]?
A: The GI50 was 4.31 µM (inactive).

Q: And the GI50 [49]?
A: Its GI50 is 2.09 µM (inactive).

Q: And the GI50 [50]?
A: The GI50 was 3.74 µM (inactive).

Q: And the GI50 [51]?
A: The GI50 was 2.29 µM (inactive).

Q: What about the GI50 [52] of the same compound?
A: The GI50 was 2.7 µM (inactive).

Q: And the GI50 [53]?
A: The GI50 was 1.71 µM (inactive).

Q: And the GI50 [54]?
A: Its GI50 is 1.72 µM (inactive).

Q: And the GI50 [55]?
A: Its GI50 is 2.53 µM (inactive).

Q: And the GI50 [56]?
A: Its GI50 is 1.82 µM (inactive).

Q: What about the GI50 [57] of the same compound?
A: The GI50 was 1.69 µM (inactive).

Q: What does the source list for CCOC(=O)CC(=O)CSc1c(-c2ccccc2)c(=O)n(-c2ccccc2)c(=S)n1-c1ccccc1?
A: GI50 [1]: > 100 µM (inactive); GI50 [2]: > 100 µM (inactive); GI50 [3]: > 100 µM (inactive); GI50 [4]: > 100 µM (inactive); GI50 [5]: > 100 µM (inactive); GI50 [6]: 51.4 µM (inactive); GI50 [7]: > 100 µM (inactive); GI50 [8]: > 100 µM (inactive); GI50 [9]: > 100 µM (inactive); GI50 [10]: > 100 µM (inactive); GI50 [11]: > 100 µM (inactive); GI50 [12]: > 100 µM; GI50 [13]: > 100 µM (inactive); GI50 [58]: > 100 µM (inactive); GI50 [14]: > 100 µM (inactive); GI50 [15]: > 100 µM (inactive); GI50 [16]: > 100 µM (inactive); GI50 [17]: 19.8 µM (inactive); GI50 [18]: > 100 µM (inactive); GI50 [19]: > 100 µM (inactive); GI50 [20]: > 100 µM (inactive); GI50 [21]: > 100 µM (inactive); GI50 [22]: > 100 µM (inactive); GI50 [23]: > 100 µM (inactive); GI50 [24]: > 100 µM (inactive); GI50 [25]: > 100 µM (inactive); GI50 [26]: 38.9 µM (inactive); GI50 [27]: > 100 µM (inactive); GI50 [28]: > 100 µM (inactive); GI50 [29]: > 100 µM (inactive); GI50 [30]: > 100 µM (inactive); GI50 [31]: 69.7 µM (inactive); GI50 [32]: > 100 µM (inactive); GI50 [33]: > 100 µM (inactive); GI50 [34]: > 100 µM (inactive); GI50 [35]: > 100 µM (inactive); GI50 [36]: > 100 µM (inactive); GI50 [37]: > 100 µM (inactive); GI50 [39]: > 100 µM (inactive); GI50 [40]: > 100 µM (inactive); GI50 [41]: > 100 µM (inactive); GI50 [42]: > 100 µM (inactive); GI50 [43]: > 100 µM (inactive); GI50 [46]: > 100 µM (inactive); GI50 [47]: > 100 µM (inactive); GI50 [48]: > 100 µM (inactive); GI50 [49]: > 100 µM (inactive); GI50 [50]: 95.1 µM (inactive); GI50 [51]: > 100 µM (inactive); GI50 [52]: > 100 µM (inactive); GI50 [53]: > 100 µM (inactive); GI50 [54]: > 100 µM (inactive); GI50 [55]: > 100 µM (inactive); GI50 [56]: > 100 µM (inactive); GI50 [57]: > 100 µM (inactive)
